Test results from BindingDB's records for doi:10.3109/14756366.2010.487485 (Huazhong University of Science and Technology, 2011).

Columns and labels:
[1] = biological target: Disintegrin and metalloproteinase domain-containing protein 17 (Homo sapiens, UniProt P78536); assay: TACE Assay; conditions: pH 9; 37 °C
Experimental: Then, 15ng TACE was added to buffer solution containing 140μMTACE peptide substrate at a final volume of 50 μL. After incubation for 15 min at 37°C, the reaction was stopped with 25 μL of 1% TFA. An aliquot of 25μL of internal standard solution was then added and the solution mixture was analysed by HPLC.

[2] = biological target: Matrix metalloproteinase-9 (Homo sapiens, UniProt P14780); assay: MMP-9 Assay; conditions: pH 7.5; 37 °C
Experimental: The MMP-9 assay was performed in 50 mM Tris-HCl buffer (pH 7.5, 10mM CaCl2, 150mM NaCl, 0.05% Brij-35). […] After incubation for 25 min at 37°C, the reaction was stopped with 25 μL of 1% TFA. An aliquot of 25 μL internal standard solution was then added and the solution mixture was analysed by HPLC. […] After incubation for 30 min at 37°C, 2 μL of 3 nM MMP-9 substrate was added.

Sequence of Disintegrin and metalloproteinase domain-containing protein 17 (P78536 whole entry, the tested form may be a part): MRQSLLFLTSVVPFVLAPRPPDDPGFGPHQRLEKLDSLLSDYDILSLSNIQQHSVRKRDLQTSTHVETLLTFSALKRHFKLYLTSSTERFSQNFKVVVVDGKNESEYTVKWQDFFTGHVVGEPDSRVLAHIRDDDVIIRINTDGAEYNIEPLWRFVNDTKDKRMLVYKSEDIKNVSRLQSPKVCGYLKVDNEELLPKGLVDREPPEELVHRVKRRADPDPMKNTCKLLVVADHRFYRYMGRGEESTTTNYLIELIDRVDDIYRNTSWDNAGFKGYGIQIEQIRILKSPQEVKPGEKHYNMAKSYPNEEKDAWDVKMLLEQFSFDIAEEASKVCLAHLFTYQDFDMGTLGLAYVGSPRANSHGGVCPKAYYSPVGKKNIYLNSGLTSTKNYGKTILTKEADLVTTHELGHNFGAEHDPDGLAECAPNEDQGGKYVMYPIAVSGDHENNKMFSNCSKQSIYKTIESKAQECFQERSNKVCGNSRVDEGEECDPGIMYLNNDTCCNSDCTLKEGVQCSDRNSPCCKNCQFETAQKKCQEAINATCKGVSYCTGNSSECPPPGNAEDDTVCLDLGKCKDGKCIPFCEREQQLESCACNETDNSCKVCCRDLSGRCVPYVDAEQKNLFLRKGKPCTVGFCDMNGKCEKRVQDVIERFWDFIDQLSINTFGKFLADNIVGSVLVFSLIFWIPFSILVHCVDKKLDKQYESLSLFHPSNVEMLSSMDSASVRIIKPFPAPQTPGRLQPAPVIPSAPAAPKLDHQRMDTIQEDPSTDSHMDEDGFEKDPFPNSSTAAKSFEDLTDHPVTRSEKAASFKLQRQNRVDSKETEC
Sequence of Matrix metalloproteinase-9 (P14780 whole entry): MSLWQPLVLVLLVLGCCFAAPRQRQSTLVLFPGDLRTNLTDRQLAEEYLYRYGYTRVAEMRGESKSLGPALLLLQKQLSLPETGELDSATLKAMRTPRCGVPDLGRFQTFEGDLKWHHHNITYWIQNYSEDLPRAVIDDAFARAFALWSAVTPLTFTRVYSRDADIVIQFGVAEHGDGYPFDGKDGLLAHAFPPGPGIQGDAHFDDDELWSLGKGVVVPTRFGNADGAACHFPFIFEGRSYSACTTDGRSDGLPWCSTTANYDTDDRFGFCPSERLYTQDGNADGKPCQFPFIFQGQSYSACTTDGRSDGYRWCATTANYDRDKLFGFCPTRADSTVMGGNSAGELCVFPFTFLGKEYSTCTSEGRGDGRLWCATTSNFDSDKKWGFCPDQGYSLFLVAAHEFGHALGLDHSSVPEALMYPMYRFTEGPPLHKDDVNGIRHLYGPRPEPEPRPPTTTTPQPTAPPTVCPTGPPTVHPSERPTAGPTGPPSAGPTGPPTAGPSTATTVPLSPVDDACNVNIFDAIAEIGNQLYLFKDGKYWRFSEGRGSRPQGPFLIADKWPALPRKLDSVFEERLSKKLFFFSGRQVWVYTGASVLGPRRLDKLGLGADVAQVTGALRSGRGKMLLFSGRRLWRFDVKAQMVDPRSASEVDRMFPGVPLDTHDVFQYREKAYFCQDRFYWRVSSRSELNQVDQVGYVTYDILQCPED

Row | Structure (SMILES) | IC50 [1] [nM] | IC50 [2] [nM]
1 | CNC(=O)[C@H](Cc1c[nH]c2ccccc12)NC(=O)[C@@H](CC(=O)NO)CC(C)C [GM6001] | 317 | 
2 | O=C(Cc1cc2ccccc2oc1=O)NO [Inhibitor A] | 175 | 537
